# Measurements reported in patent US20250034150A1, “BTK INHIBITORS” (BIOGEN MA INC., priority 2021, published 2025).
# Counter-ions that a name gives are not always drawn. Like-named read-outs stand apart in the source and are kept apart here.
# Experiments:
# BTK = molecular target: T1, BTK (Homo sapiens, UniProt Q06187); test: In Vitro BTK Kinase Assay: Btk-PolyGAT-LS Assay; format: biochemical; settings: active BTK enzyme 0.25 nM, polyGAT 100 nM, 30 minutes, TRF readout; read-out: In Vitro BTK Kinase Assay IC50 Score
# T1 construct: purchased Upstate 14-552
# T1 sequence (Q06187 whole entry): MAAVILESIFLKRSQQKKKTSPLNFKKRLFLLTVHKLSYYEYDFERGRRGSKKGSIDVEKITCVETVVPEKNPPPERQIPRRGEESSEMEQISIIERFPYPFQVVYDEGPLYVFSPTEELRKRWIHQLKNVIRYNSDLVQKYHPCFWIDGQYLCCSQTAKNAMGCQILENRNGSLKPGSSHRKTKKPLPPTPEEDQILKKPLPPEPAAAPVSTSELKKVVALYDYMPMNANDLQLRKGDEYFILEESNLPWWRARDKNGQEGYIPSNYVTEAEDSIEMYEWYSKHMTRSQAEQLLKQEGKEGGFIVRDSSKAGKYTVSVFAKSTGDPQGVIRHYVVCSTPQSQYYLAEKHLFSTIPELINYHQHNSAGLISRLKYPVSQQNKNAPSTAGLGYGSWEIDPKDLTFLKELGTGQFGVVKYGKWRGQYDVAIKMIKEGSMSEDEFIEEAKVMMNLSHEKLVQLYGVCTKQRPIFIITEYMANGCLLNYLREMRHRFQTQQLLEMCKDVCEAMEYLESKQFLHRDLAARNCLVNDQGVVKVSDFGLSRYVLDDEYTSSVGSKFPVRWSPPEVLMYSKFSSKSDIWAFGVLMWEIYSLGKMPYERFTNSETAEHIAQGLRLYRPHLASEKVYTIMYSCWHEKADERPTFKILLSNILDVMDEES
# Description: The purpose of the BTK in vitro assay is to determine compound potency against BTK through the measurement of IC50. Compound inhibition is measured after monitoring the amount of phosphorylation of a fluorescein-labeled polyGAT peptide (Invitrogen PV3611) in the presence of active BTK enzyme (Upstate 14-552), ATP, and inhibitor. The BTK kinase reaction was done in a black 96 well plate (costar 3694). For a typical assay, a 24 μL aliquot of a ATP/peptide master mix (final concentration; ATP […], polyGAT 100 nM) in kinase buffer (10 mM Tris-HCl pH 7.5, 10 mM MgCl2, 200 μM […], 5 mM DTT, 0.01% Triton X-100, and 0.2 mg/ml casein) is added to each well. Next, […] of a 4-fold, 40× compound titration in 100% DMSO solvent is added, followed by adding 15 μL of BTK enzyme mix in 1× kinase buffer (with a final concentration of 0.25 nM). The assay is incubated for 30 minutes before being stopped with 28 μL of a 50 mM EDTA solution. Aliquots (5 uL) of the kinase reaction are transferred to a low volume white 384 well plate (Coming 3674), and 5 μL of a 2× detection buffer (Invitrogen PV3574, with 4 nM Tb—PY20 antibody, Invitrogen PV3552) is added. The plate is covered and incubated for 45 minutes at room temperature. Time resolved fluorescence (TRF) on Molecular Devices M5 (332 nm excitation; 488 nm emission; 518 nm fluorescein emission) is measured. IC50 values are calculated using a four parameter fit with 100% enzyme activity determined from the DMSO control and 0% activity from the EDTA control.
# [1] = system: CD69 expression on CD19+ B cells in human whole blood; test: In Vitro whole blood CD69 Assay; format: cell-based; settings: B-cell, read-out: In Vitro HWB CD69 Assay IC50 Score
# Description: Human heparinized venous blood from health donors was aliquoted into 96-well plate and “spiked” with serial dilutions of formula I compounds in DMSO or with DMSO without drug. The final concentration of DMSO in all wells was 0.1%. The plate was incubated at 37° C. for 30 min. Drug-containing samples were stimulated with 0.1 μg/mL mouse anti-human IgD-dextran (1A62) or 20 μg/mL polyclonal rabbit F(ab′)2 anti-human IgD. Phosphate-buffered saline (PBS) was added to the negative control unstimulated sample and the plates were incubated overnight (18 to 22 hours) at 37° C. Cells were stained with fluorochrome-conjugated anti-CD19 and anti-CD69 antibodies. Lyse/fix solution was used to remove red blood cells by hypotonic lysis and to fix the remaining cells, which were then analyzed by flow cytometry. CD19+ B cells were gated and analyzed for CD69 expression.
# [2] = human heparinized whole blood, anti-human IgD stimulation overnight, CD19+ B cells, flow cytometry
SMILES,IC50 (BTK),IC50 ([1]; Homo sapiens),"IC50 [1, 2]"
"C[C@@H]1C(c2nc(C(=O)NCc3ccc(-c4nc(-c5cnn(C)c5)cc5nccn45)cc3)no2)[C@@H]1C (mixture of isomers) [Example 62, 5-(2,3-cis-dimethylcyclopropyl)-N-(4-(7-(1-methyl-1H-pyrazol-4-yl)imidazo[1,2-c]pyrimidin-5-yl)benzyl)-1,2,4-oxadiazole-3-carboxamide]",1 to 10 nM,1000 to 10000 nM,–
"C[C@@H]1C[C@@H](CNC(=O)c2cn(C(C)(C)C)nn2)CCN1c1nc(-c2cnn(C)c2)cn2nccc12 (single isomer, unassigned) [Example 143]",1 to 10 nM,–,1000 to 10000 nM
"C[C@@H]1CN(c2nc(-c3cnn(C)c3)cn3nccc23)CC[C@@H]1CNC(=O)c1noc(C2(C)CC2)n1 (single isomer, unassigned) [Example 146]",1 to 10 nM,–,1000 to 10000 nM
"C[C@H]1CN(c2nc(-c3cnn(C)c3)cn3nccc23)CC[C@@H]1CNC(=O)c1noc(C2(C)CC2)n1 (single isomer, unassigned) [Example 148]",1 to 10 nM,–,1000 to 10000 nM
"Cn1cc(-c2cn3nccc3c(N3CC[C@H](CNC(=O)c4noc(C(C)(C)C)n4)[C@H](F)C3)n2)cn1 (single isomer, unassigned) [Example 155]",1 to 10 nM,–,1000 to 10000 nM
"Cn1cc(-c2cn3nccc3c(N3CC[C@@H](CNC(=O)c4noc(C(C)(C)C)n4)[C@@H](F)C3)n2)cn1 (single isomer, unassigned) [Example 156]",1 to 10 nM,–,< 1000 nM
"Cn1cc(-c2cn3nccc3c(N3CC[C@@H](CNC(=O)c4noc(C(C)(C)C)n4)C(F)(F)C3)n2)cn1 (single isomer, unassigned) [Example 158]",< 1 nM,–,< 1000 nM
"Cn1cc(-c2cn3nccc3c(-c3ccc(CNC(=O)c4ccn(C(C)(C)C)n4)cc3)n2)cn1 [Example 1, 1-(tert-butyl)-N-(4-(6-(1-methyl-1H-pyrazol-4-yl)pyrazolo[1,5-a]pyrazin-4-yl)benzyl)-1H-pyrazole-3-carboxamide]",10 to 1000 nM,–,1000 to 10000 nM
"Cn1cc(-c2cn3nccc3c(-c3ccc(CNC(=O)c4cnn(C(C)(C)C)c4)cc3)n2)cn1 [Example 2, 1-(tert-butyl)-N-(4-(6-(1-methyl-1H-pyrazol-4-yl)pyrazolo[1,5-a]pyrazin-4-yl)benzyl)-1H-pyrazole-4-carboxamide]",1 to 10 nM,–,< 1000 nM
"Cn1cc(-c2cn3nccc3c(-c3ccc(CNC(=O)c4nnn(C(C)(C)C)n4)cc3)n2)cn1 [Example 3, 2-(tert-butyl)-N-(4-(6-(1-methyl-1H-pyrazol-4-yl)pyrazolo[1,5-a]pyrazin-4-yl)benzyl)-2H-tetrazole-5-carboxamide]",< 1 nM,–,< 1000 nM
"Cc1cc(-c2nc(N3CCOCC3)cn3nccc23)ccc1CNC(=O)c1noc(C2(C)CC2)n1 [Example 126, N-(2-methyl-4-(6-morpholinopyrazolo[1,5-a]pyrazin-4-yl)benzyl)-5-(1-methylcyclopropyl)-1,2,4-oxadiazole-3-carboxamide]",1 to 10 nM,–,–
CN1CCN(c2cn3nccc3c(-c3ccc(CNC(=O)c4nnc(C(C)(C)C)o4)c(F)c3)n2)CC1 [Example 127],10 to 1000 nM,–,–
"CN1CCN(c2cn3nccc3c(-c3ccc(CNC(=O)c4coc(C(C)(C)C)n4)c(F)c3)n2)CC1 [Example 129, 2-(tert-butyl)-N-(2-fluoro-4-(6-(4-methylpiperazin-1-yl)pyrazolo[1,5-alpyrazin-4-yl)benzyl)oxazole-4-carboxamide trifluoroacetate]",10 to 1000 nM,–,–
"Cc1cc(-c2nc(N3CCN(C)CC3)cn3nccc23)ccc1CNC(=O)c1noc(C2(C)CC2)n1 [Example 131, N-(2-methyl-4-(6-(4-methylpiperazin-1-yl)pyrazolo[1,5-a]pyrazin-4-yl)benzyl)-5-(1-methylcyclopropyl)-1,2,4-oxadiazole-3-carboxamide trifluoroacetate]",1 to 10 nM,–,–
"CC(C)(C)c1nc(C(=O)NCc2ccc(-c3nc(N4CCC4)cn4nccc34)cc2)no1 [Example 134, N-(4-(6-(azetidin-1-yl)pyrazolo[1,5-a]pyrazin-4-yl)benzyl)-5-(tert-butyl)-1,2,4-oxadiazole-3-carboxamide]",1 to 10 nM,–,–
"CN(C)c1cn2nccc2c(-c2ccc(CNC(=O)c3noc(C(C)(C)C)n3)cc2)n1 [Example 135, 5-(tert-butyl)-N-(4-(6-(dimethylamino)pyrazolo[1,5-a]pyrazin-4-yl)benzyl)-1,2,4-oxadiazole-3-carboxamide]",10 to 1000 nM,–,–
"Cn1cc(-c2cn3nccc3c(N3CCC(F)(CNC(=O)c4cn(C(C)(C)C)nn4)CC3)n2)cn1 [Example 162, 1-(tert-butyl)-N-((4-fluoro-1-(6-(1-methyl-1H-pyrazol-4-yl)pyrazolo[1,5-a]pyrazin-4-yl)piperidin-4-yl)methyl)-1H-1,2,3-triazole-4-carboxamide trifluoroacetate]",10 to 1000 nM,–,–
"CC(NC(=O)c1cn(C(C)(C)C)nn1)C1CCN(c2nc(-c3cnn(C)c3)cn3nccc23)CC1 (stereo not shown) [Example 163, 1-(tert-butyl)-N-(1-(1-(6-(1-methyl-1H-pyrazol-4-yl)pyrazolo[1,5-a]pyrazin-4-yl)piperidin-4-yl)ethyl)-1H-1,2,3-triazole-4-carboxamide]",10 to 1000 nM,–,–
"Cn1cc(-c2cn3nccc3c(N3C[C@H]4CC[C@@H](C3)[C@H]4CNC(=O)c3noc(C(C)(C)C)n3)n2)cn1 [Example 164, 5-(tert-butyl)-N-(((1R,5S,8s)-3-(6-(1-methyl-1H-pyrazol-4-yl)pyrazolo[1,5-a]pyrazin-4-yl)-3-azabicyclo[3.2.1]octan-8-yl)methyl)-1,2,4-oxadiazole-3-carboxamide]",10 to 1000 nM,–,–
"Cn1cc(-c2cn3nccc3c(N3CC4CCC(C3)C4CNC(=O)c3noc(C(C)(C)C)n3)n2)cn1 [Example 165, 5-(tert-butyl)-N-(((1R,5S,8r)-3-(6-(1-methyl-1H-pyrazol-4-yl)pyrazolo[1,5-a]pyrazin-4-yl)-3-azabicyclo[3.2.1]octan-8-yl)methyl)-1,2,4-oxadiazole-3-carboxamide]",10 to 1000 nM,–,–
"Cn1cc(-c2cn3nccc3c(N3CCCC(CNC(=O)c4noc(C(C)(C)C)n4)CC3)n2)cn1 (stereo not shown) [Example 166, 5-(tert-butyl)-N-((1-(6-(1-methyl-1H-pyrazol-4-yl)pyrazolo[1,5-a]pyrazin-4-yl)azepan-4-yl)methyl)-1,2,4-oxadiazole-3-carboxamide]",10 to 1000 nM,–,–
"Cn1cc(-c2cn3nccc3c(N3CCCC(CNC(=O)c4cn(C(C)(C)C)nn4)CC3)n2)cn1 (stereo not shown) [Example 167, 1-(tert-butyl)-N-((1-(6-(1-methyl-1H-pyrazol-4-yl)pyrazolo[1,5-a]pyrazin-4-yl)azepan-4-yl)methyl)-1H-1,2,3-triazole-4-carboxamide]",10 to 1000 nM,–,–
"CC(C)CN1CCN(CC2CCN(c3nc(-c4cnn(C)c4)cn4nccc34)CC2)C(=O)C1 [Example 168, 4-isobutyl-1-((1-(6-(1-methyl-1H-pyrazol-4-yl)pyrazolo[1,5-a]pyrazin-4-yl)piperidin-4-yl)methyl)piperazin-2-one]",10 to 1000 nM,–,–
"Cn1cc(-c2cn3nccc3c(N3CCC(CN4CCN(CC5CCC5)CC4=O)CC3)n2)cn1 [Example 169, 4-(Cyclobutylmethyl)-1-((1-(6-(1-methyl-1H-pyrazol-4-yl)pyrazolo[1,5-a]pyrazin-4-yl)piperidin-4-yl)methyl)piperazin-2-one]",10 to 1000 nM,–,–
"CCCN1CCN(CC2CCN(c3nc(-c4cnn(C)c4)cn4nccc34)CC2)C(=O)C1 [Example 170, 1-((1-(6-(1-methyl-1H-pyrazol-4-yl)pyrazolo[1,5-a]pyrazin-4-yl)piperidin-4-yl)methyl)-4-propylpiperazin-2-one hydrochloride]",1000 to 10000 nM,–,–
"CN1CCN(CC2CCN(c3nc(-c4cnn(C)c4)cn4nccc34)CC2)C(=O)C1 [Example 171, 4-methyl-1-((1-(6-(1-methyl-1H-pyrazol-4-yl)pyrazolo[1,5-a]pyrazin-4-yl)piperidin-4-yl)methyl)piperazin-2-one]",1000 to 10000 nM,–,–
"CC(C)N1CCN(CC2CCN(c3nc(-c4cnn(C)c4)cn4nccc34)CC2)C(=O)C1 [Example 173, 4-isopropyl-1-((1-(6-(1-methyl-1H-pyrazol-4-yl)pyrazolo[1,5-a]pyrazin-4-yl)piperidin-4-yl)methyl)piperazin-2-one]",1000 to 10000 nM,–,–
